These results are taken from ChEMBL document CHEMBL1136522, “Redefining the structure-activity relationships of 2,6-methano-3-benzazocines. Part 2: 8-formamidocyclazocine analogues” (Bioorg Med Chem Lett, 2003).

Test [1] addresses T1, Mu-type opioid receptor (Cavia porcellus, UniProt P97266). Briefly: Binding affinity towards Opioid receptor mu 1 using [3H]DAMGO as radioligand.
Test [2] is described as follows: Binding affinity was determined towards Opioid receptor delta 1 using [3H]naltrindole as radioligand.
The target in test [3] is Kappa-type opioid receptor (Cavia porcellus, UniProt P41144). Briefly: Binding affinity was determined towards opioid receptor kappa 1 using [3H]U-69593 as radioligand.
Test [4] deals with T1, Mu-type opioid receptor. Briefly: Binding affinity was determined towards opioid receptor mu1 using [3H]DAMGO as radioligand.

For orientation: Ki means the dissociation constant of the complex between target and ligand, obtained from inhibition or displacement. A lower Ki goes with higher affinity.

The structures appear in SMILES notation.

Sequence of Kappa-type opioid receptor (P41144 whole entry): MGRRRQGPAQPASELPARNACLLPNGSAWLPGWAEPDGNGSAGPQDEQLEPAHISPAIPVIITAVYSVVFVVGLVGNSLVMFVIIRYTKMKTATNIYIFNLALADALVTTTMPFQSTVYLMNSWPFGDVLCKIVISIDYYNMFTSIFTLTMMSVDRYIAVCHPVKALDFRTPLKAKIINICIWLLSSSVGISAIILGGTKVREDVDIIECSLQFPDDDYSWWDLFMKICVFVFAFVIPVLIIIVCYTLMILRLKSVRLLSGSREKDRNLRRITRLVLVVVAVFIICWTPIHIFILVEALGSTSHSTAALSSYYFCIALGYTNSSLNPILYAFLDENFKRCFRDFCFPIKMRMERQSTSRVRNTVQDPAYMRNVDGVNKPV
T1 sequence (P97266 whole entry): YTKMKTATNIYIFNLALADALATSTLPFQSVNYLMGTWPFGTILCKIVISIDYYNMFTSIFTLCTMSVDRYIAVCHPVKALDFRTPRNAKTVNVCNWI

At Mu-type opioid receptor [1], `C[C@H]1C2Cc3ccc(NCc4ccccc4)cc3[C@@]1(C)CCN2CC1CC1` gave a Ki of around 1.3 nM.
As to `NC(=O)c1ccc2c3c1O[C@H]1C(=O)CC[C@@]4(O)[C@@H](C2)N(CC2CC2)CC[C@]314`, in test [2], the affinity, expressed as Ki, was 110 nM.
Take `O=CNc1ccc2c3c1O[C@H]1C(=O)CC[C@@]4(O)[C@@H](C2)N(CC2CC2)CC[C@]314`: the results for the Ki (in test [3]; at Mu-type opioid receptor [4]) were 4.2 nM and 8.3 nM, respectively.
For `CC[C@@]12CCN(CC3CC3)C(C(=O)c3ccc(C(N)=O)cc31)[C@@H]2C`, in test [2], the affinity corresponds to a Ki of 9.8 nM.
For `C[C@H]1[C@H]2Cc3ccc(O)cc3C1(C)CCN2CC1CC1` (single isomer, unassigned) [CYCLAZOCINE], the affinity in test [2] corresponds to a Ki of 1.1 nM.
On to `C[C@H]1[C@H]2Cc3ccc(Nc4ccccc4)cc3[C@@]1(C)CCN2CC1CC1`, for which the Ki at Mu-type opioid receptor [1] was around 1.3 nM.
On to `Nc1ccc2c3c1O[C@H]1C(=O)CC[C@@]4(O)[C@@H](C2)N(CC2CC2)CC[C@]314`, for which the Ki in test [3] was found to be 5.8 nM; on Mu-type opioid receptor [4] it was 5.6 nM.
Consider `C[C@@H]1C2Cc3ccc(NC=O)cc3C1(C)CCN2CC1CC1` (single isomer, unassigned), for which the Ki in test [3] was 900 nM; at Mu-type opioid receptor [4], 2300 nM.
The like results for `C[C@H]1C2Cc3ccc(NC=O)cc3[C@@]1(C)CCN2CC1CC1` were, in that order, 0.85 nM and 1.9 nM.
On the same counts, the results for `CC(=O)Nc1ccc2c(c1)[C@@]1(C)CCN(CC3CC3)C(C2)[C@@H]1C` are 130 nM and 240 nM.
On the same counts, the results for `CC[C@@]12CCN(CC3CC3)C(C(=O)c3ccc(NC=O)cc31)[C@@H]2C` are 1.2 nM and 6.1 nM.
As for `C[C@H]1C2Cc3ccc(C(N)=O)cc3[C@@]1(C)CCN2CC1CC1`, affinity in test [2] was put at a Ki of 8.3 nM.
As to `C[C@H]1[C@H]2Cc3ccc(NC=O)cc3[C@]1(C)CCN2CC1CC1`, the Ki in test [3] stood at 0.49 nM; at Mu-type opioid receptor [4] it was 1.1 nM.
The like results for `C[C@H]1C2Cc3ccc(NC(=O)c4ccccc4)cc3[C@@]1(C)CCN2CC1CC1` were, in that order, 820 nM and 570 nM.
The like results for `C[C@H]1C2Cc3ccc(N(C)C=O)cc3[C@@]1(C)CCN2CC1CC1` were, in that order, 200 nM and 550 nM.
